*1 amine or outer side, *2 acyl side, *3 side chain or, on linkers, in order; H or OH if unused. Where a SMILES comes first, the peptide text is derived from it. Side-chain parts run from the residue outwards. [ ]: non-standard residue; d: D form. The star is where a group is joined. γGlu = O=C(O)[C@H](CCC(=O)[*:2])N[*:1]; Palmitoyl = CCCCCCCCCCCCCCCC(=O)*; Aib = CC(C)(N)C(=O)O
Tests used:
Format in all cases: cell-based
Conditions in all cases: Table 7; cAMP formation
[1] = target: T1, human GLP-1 receptor (hGLP-1 R) (Homo sapiens, UniProt P43220); experiment: cAMP response of HEK-293 cells stably expressing human GLP-1 receptor (HTRF)
T1 construct: expressed in transfected cells
T1 sequence (P43220 24-463): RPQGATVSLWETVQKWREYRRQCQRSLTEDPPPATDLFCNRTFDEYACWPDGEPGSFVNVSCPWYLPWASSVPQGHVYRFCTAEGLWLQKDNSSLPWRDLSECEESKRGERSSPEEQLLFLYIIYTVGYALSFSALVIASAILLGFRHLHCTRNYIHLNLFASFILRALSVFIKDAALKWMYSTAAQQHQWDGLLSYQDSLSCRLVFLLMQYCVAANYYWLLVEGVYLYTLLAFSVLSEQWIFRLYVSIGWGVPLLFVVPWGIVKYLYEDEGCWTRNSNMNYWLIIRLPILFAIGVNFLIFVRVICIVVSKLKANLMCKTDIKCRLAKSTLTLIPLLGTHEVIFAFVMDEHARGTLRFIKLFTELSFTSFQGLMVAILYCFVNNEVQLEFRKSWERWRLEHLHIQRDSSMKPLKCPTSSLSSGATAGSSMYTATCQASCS
How it was run: (§1)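 cAMP accumulation was read by homogeneous time-resolved fluorescence after 30 min compound exposure at room temperature. Stable receptor-expressing HEK-293 cells, 400000 cells/ml, were used in HEPES-buffered HBSS containing 0.1% BSA and the phosphodiesterase inhibitor IBMX (2 mM).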

[2] = target: T2, human GIP receptor (hGIP R) (Homo sapiens, UniProt P48546); experiment: cAMP response of HEK-293 cells stably expressing human GIP receptor (HTRF)
T2 construct: expressed in transfected cells
T2 sequence (P48546 22-466): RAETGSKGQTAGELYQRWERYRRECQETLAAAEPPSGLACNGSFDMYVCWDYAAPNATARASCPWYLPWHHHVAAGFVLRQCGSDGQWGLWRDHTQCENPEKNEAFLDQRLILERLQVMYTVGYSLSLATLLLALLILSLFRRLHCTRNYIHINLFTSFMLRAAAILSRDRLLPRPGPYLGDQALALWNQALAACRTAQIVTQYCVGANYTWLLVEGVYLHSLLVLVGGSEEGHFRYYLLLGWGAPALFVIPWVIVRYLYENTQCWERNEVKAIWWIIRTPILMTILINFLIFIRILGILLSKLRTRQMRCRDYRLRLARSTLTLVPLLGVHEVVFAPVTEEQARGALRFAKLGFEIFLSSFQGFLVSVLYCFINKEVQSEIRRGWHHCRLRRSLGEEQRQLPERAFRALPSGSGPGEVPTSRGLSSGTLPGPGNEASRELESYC
How it was run: as §1

[3] = target: T3, human glucagon receptor (hGLUC R) (Homo sapiens, UniProt P47871); experiment: cAMP response of HEK-293 cells stably expressing human glucagon receptor (HTRF)
T3 construct: expressed in transfected cells
T3 sequence (P47871 26-477): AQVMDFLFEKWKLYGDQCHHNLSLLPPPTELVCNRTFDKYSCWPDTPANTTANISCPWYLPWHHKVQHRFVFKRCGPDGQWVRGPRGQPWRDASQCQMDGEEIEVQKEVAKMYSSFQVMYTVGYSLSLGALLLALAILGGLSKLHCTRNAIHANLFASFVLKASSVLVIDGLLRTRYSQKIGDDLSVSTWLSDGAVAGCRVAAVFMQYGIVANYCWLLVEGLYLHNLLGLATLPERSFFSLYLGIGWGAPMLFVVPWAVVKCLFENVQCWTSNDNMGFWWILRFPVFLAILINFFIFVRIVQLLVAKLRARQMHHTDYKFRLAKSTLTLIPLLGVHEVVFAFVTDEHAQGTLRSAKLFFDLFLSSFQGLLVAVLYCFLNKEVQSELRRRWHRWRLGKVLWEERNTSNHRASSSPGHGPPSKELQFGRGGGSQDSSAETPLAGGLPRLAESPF
How it was run: as §1

Structure (SMILES) | EC50 [1] | EC50 [2] | EC50 [3]
CCCCCCCCCCCCCCCC(=O)N[C@@H](CCC(=O)NCCCC[C@H](NC(=O)[C@H](CCC(N)=O)NC(=O)[C@@H](NC(=O)[C@H](CO)NC(=O)[C@H](CC(C)C)NC(=O)[C@H](CC(=O)O)NC(=O)[C@H](CO)NC(=O)[C@@H](NC(=O)[C@H](Cc1ccccc1)NC(=O)[C@@H](NC(=O)CNC(=O)[C@H](CCC(=O)O)NC(=O)C(C)(C)NC(=O)[C@@H](N)Cc1ccc(O)cc1)[C@@H](C)O)[C@@H](C)O)[C@@H](C)CC)C(=O)N[C@@H](CC(=O)O)C(=O)N[C@@H](CCCCN)C(=O)N[C@@H](CCCNC(=N)N)C(=O)N[C@@H](C)C(=O)N[C@@H](C)C(=O)N[C@@H](CCC(N)=O)C(=O)N[C@@H](CC(C)C)C(=O)N[C@@H](Cc1ccccc1)C(=O)N[C@H](C(=O)N[C@@H](CCC(=O)O)C(=O)N[C@@H](Cc1c[nH]c2ccccc12)C(=O)N[C@@H](CC(C)C)C(=O)N[C@@H](CCCCN)C(=O)N[C@@H](CC(N)=O)C(=O)NCC(=O)NCC(=O)N1CCC[C@H]1C(=O)N[C@@H](CO)C(=O)N[C@@H](CO)C(=O)NCC(=O)N[C@@H](C)C(=O)N1CCC[C@H]1C(=O)N1CCC[C@H]1C(=O)N1CCC[C@H]1C(=O)N[C@@H](CO)C(N)=O)[C@@H](C)CC)C(=O)O [SEQ ID NO: 55, Y-Aib-E-G-T-F-T-S-D-L-S-I-Q-K(yE-x53)-DKRAAQLFIEWLKNGGPSSGAPPPS-NH2] (H-Y[Aib]EGTFTSDLSIQK([γGlu-Palmitoyl])DKRAAQLFIEWLKNGGPSSGAPPPS-NH2) | 0.0161 nM | 0.0156 nM | 18.3 nM
CCCCCCCCCCCCCCCC(=O)NCCCC[C@H](NC(=O)[C@H](CCC(N)=O)NC(=O)[C@@H](NC(=O)[C@H](CO)NC(=O)[C@H](CC(C)C)NC(=O)[C@H](CC(=O)O)NC(=O)[C@H](CO)NC(=O)[C@@H](NC(=O)[C@H](Cc1ccccc1)NC(=O)[C@@H](NC(=O)CNC(=O)[C@H](CCC(N)=O)NC(=O)C(C)(C)NC(=O)[C@@H](N)Cc1ccc(O)cc1)[C@@H](C)O)[C@@H](C)O)[C@@H](C)CC)C(=O)N[C@@H](CCC(=O)O)C(=O)N[C@@H](CCCCN)C(=O)N[C@@H](CCCNC(=N)N)C(=O)N[C@@H](C)C(=O)N[C@H](C(=O)NC(C)(C)C(=O)N[C@@H](CC(C)C)C(=O)N[C@@H](Cc1ccccc1)C(=O)N[C@H](C(=O)N[C@@H](CCC(=O)O)C(=O)N[C@@H](Cc1c[nH]c2ccccc12)C(=O)N[C@@H](CC(C)C)C(=O)N[C@@H](CCCCN)C(=O)N[C@@H](C)C(=O)NCC(=O)NCC(=O)N1CCC[C@H]1C(=O)N[C@@H](CO)C(=O)N[C@@H](CO)C(=O)NCC(=O)N[C@@H](C)C(=O)N1CCC[C@H]1C(=O)N1CCC[C@H]1C(=O)N1CCC[C@H]1C(=O)N[C@@H](CO)C(N)=O)[C@@H](C)CC)C(C)C [SEQ ID NO: 25, Y-Aib-Q-G-T-F-T-S-D-L-S-I-Q-K(x53)-E-K-R-A-V-Aib-L-F-I-E-W-L-K-A-G-G-P-S-S-G-A-P-P-P-S-NH2] (H-Y[Aib]QGTFTSDLSIQK(Palmitoyl)EKRAV[Aib]LFIEWLKAGGPSSGAPPPS-NH2) | 0.037 nM | 0.176 nM | 2.03 nM
CCCCCCCCCCCCCCCC(=O)N[C@@H](CCC(=O)NCCCC[C@H](NC(=O)[C@H](CCC(N)=O)NC(=O)[C@H](CCCCN)NC(=O)[C@H](CO)NC(=O)[C@H](CC(C)C)NC(=O)[C@H](CC(=O)O)NC(=O)[C@H](CO)NC(=O)[C@@H](NC(=O)[C@H](Cc1ccccc1)NC(=O)[C@@H](NC(=O)CNC(=O)[C@H](CCC(N)=O)NC(=O)C(C)(C)NC(=O)[C@@H](N)Cc1ccc(O)cc1)[C@@H](C)O)[C@@H](C)O)C(=O)N[C@@H](CCC(=O)O)C(=O)N[C@@H](CO)C(=O)N[C@@H](CCCCN)C(=O)N[C@@H](C)C(=O)N[C@@H](C)C(=O)N[C@@H](CCC(N)=O)C(=O)N[C@@H](CC(=O)O)C(=O)N[C@@H](Cc1ccccc1)C(=O)N[C@H](C(=O)N[C@@H](CCC(=O)O)C(=O)N[C@@H](Cc1c[nH]c2ccccc12)C(=O)N[C@@H](CC(C)C)C(=O)N[C@@H](CCCCN)C(=O)N[C@@H](C)C(=O)NCC(=O)NCC(=O)N1CCC[C@H]1C(=O)N[C@@H](CO)C(=O)N[C@@H](CO)C(=O)NCC(=O)N[C@@H](C)C(=O)N1CCC[C@H]1C(=O)N1CCC[C@H]1C(=O)N1CCC[C@H]1C(=O)N[C@@H](CO)C(N)=O)[C@@H](C)CC)C(=O)O [SEQ ID NO: 39, Y-Aib-Q-G-T-F-T-S-D-L-S-K-Q-K(yE-x53)-ESKAAQDFIEWLKAGGPSSGAPPPS-NH2] (H-Y[Aib]QGTFTSDLSKQK([γGlu-Palmitoyl])ESKAAQDFIEWLKAGGPSSGAPPPS-NH2) | 0.0045 nM | 0.0385 nM | 0.0192 nM
CCCCCCCCCCCCCCCC(=O)N[C@@H](CCC(=O)NCCCC[C@H](NC(=O)[C@H](CCC(N)=O)NC(=O)[C@H](CCCCN)NC(=O)[C@H](CO)NC(=O)[C@H](CC(C)C)NC(=O)[C@H](CC(=O)O)NC(=O)[C@H](CO)NC(=O)[C@@H](NC(=O)[C@H](Cc1ccccc1)NC(=O)[C@@H](NC(=O)CNC(=O)[C@H](CCC(N)=O)NC(=O)C(C)(C)NC(=O)[C@@H](N)Cc1ccc(O)cc1)[C@@H](C)O)[C@@H](C)O)C(=O)N[C@@H](CC(=O)O)C(=O)N[C@@H](CO)C(=O)N[C@@H](CCCNC(=N)N)C(=O)N[C@@H](C)C(=O)N[C@@H](C)C(=O)N[C@@H](CCCNC(=N)N)C(=O)N[C@@H](CC(=O)O)C(=O)N[C@@H](Cc1ccccc1)C(=O)N[C@H](C(=O)N[C@@H](CCC(=O)O)C(=O)N[C@@H](Cc1c[nH]c2ccccc12)C(=O)N[C@@H](CC(C)C)C(=O)N[C@@H](CCCCN)C(=O)N[C@@H](C)C(=O)NCC(=O)NCC(=O)N1CCC[C@H]1C(=O)N[C@@H](CO)C(=O)N[C@@H](CO)C(=O)NCC(=O)N[C@@H](C)C(=O)N1CCC[C@H]1C(=O)N1CCC[C@H]1C(=O)N1CCC[C@H]1C(=O)N[C@@H](CO)C(N)=O)[C@@H](C)CC)C(=O)O [SEQ ID NO: 56, Y-Aib-Q-G-T-F-T-S-D-L-S-K-Q-K(yE-x53)-DSRAARDFIEWLKAGGPSSGAPPPS-NH2] (H-Y[Aib]QGTFTSDLSKQK([γGlu-Palmitoyl])DSRAARDFIEWLKAGGPSSGAPPPS-NH2) | 0.0046 nM | 0.162 nM | 0.0199 nM
CCCCCCCCCCCCCCCC(=O)N[C@@H](CCC(=O)NCCCC[C@H](NC(=O)[C@H](CCC(N)=O)NC(=O)[C@@H](NC(=O)[C@H](CO)NC(=O)[C@H](CC(C)C)NC(=O)[C@H](CC(=O)O)NC(=O)[C@H](CO)NC(=O)[C@@H](NC(=O)[C@H](Cc1ccccc1)NC(=O)[C@@H](NC(=O)CNC(=O)[C@H](CCC(N)=O)NC(=O)C(C)(C)NC(=O)[C@@H](N)Cc1ccc(O)cc1)[C@@H](C)O)[C@@H](C)O)[C@@H](C)CC)C(=O)N[C@@H](CCC(=O)O)C(=O)N[C@@H](CCCCN)C(=O)NC(C)(C)C(=O)N[C@@H](C)C(=O)N[C@@H](C)C(=O)NC(C)(C)C(=O)N[C@@H](CCC(=O)O)C(=O)N[C@@H](Cc1ccccc1)C(=O)N[C@H](C(=O)N[C@@H](CCC(=O)O)C(=O)N[C@@H](Cc1c[nH]c2ccccc12)C(=O)N[C@@H](CC(C)C)C(=O)N[C@@H](CCCCN)C(=O)N[C@@H](CC(N)=O)C(=O)N[C@H](C(=O)NCC(=O)N1CCC[C@H]1C(=O)N[C@@H](CO)C(=O)N[C@@H](CO)C(=O)NCC(=O)N[C@@H](C)C(=O)N1CCC[C@H]1C(=O)N1CCC[C@H]1C(=O)N1CCC[C@H]1C(=O)N[C@@H](CO)C(N)=O)[C@@H](C)O)[C@@H](C)CC)C(=O)O [SEQ ID NO: 9, Y-Aib-Q-G-T-F-T-S-D-L-S-I-Q-K(yE-x53)-E-K-Aib-A-A-Aib-E-F-I-E-W-L-K-N-T-G-P-S-S-G-A-P-P-P-S-NH2] (H-Y[Aib]QGTFTSDLSIQK([γGlu-Palmitoyl])EK[Aib]AA[Aib]EFIEWLKNTGPSSGAPPPS-NH2) | 0.0055 nM | 0.009 nM | 0.445 nM

Source: patent US20140213513A1 (Sanofi, priority 2012, published 2014)
